Assay results reported in ChEMBL document CHEMBL1129532, “Geranylgeranyl diphosphate-based inhibitors of post-translational geranylgeranylation of cellular proteins” (J Med Chem, 1996).

How the values were obtained:
[1] = target: T1, Geranylgeranyl transferase type I (Homo sapiens, UniProt P49354+P53609); test: Inhibition of geranylgeranylation of P21rap in human PC-3 prostate cancer cells; type: functional, cell-based
[2] = target: PC-3 cells (Homo sapiens); test: Inhibition of human PC-3 prostate cancer cell line proliferation
[3] = target: T1, Geranylgeranyl transferase type I; test: Inhibition of geranylgeranylation of P21rap in human PC-3 prostate cancer cells; values are per cent of control

`CCOP(=O)(O)CC(=O)NOC/C=C(\C)CC/C=C(\C)CC/C=C(\C)CCC=C(C)C` gave an IC50 [1] of 40.2 µM and an IC50 [2] of 35.1 µM.

For `CC(C)=CCC/C(C)=C/CC/C(C)=C/CC/C(C)=C/COC(=O)NS(N)(=O)=O`, the IC50 [1] was 28.2 µM, the residual activity [3] was 10.8% and the IC50 [2] was 22.2 µM.
